Data reported in patent US6737383B1, “Herbicidal oxadiazolidines” (priority 1999, dated 2004).

Columns and labels:
sugar beet = experiment: Test B pre/postemergence sugar beet; type: in vivo, Beta vulgaris
Outline: (§1)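 Herbicidal effect was estimated by eye on a ten-point control scale after plants spent twelve to sixteen days in a greenhouse following soil or foliar treatment. Foliar sprays targeted plants at one to four leaves; all doses were formulated in a non-phytotoxic solvent with surfactant.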

cocklebur = experiment: Test B pre/postemergence cocklebur; type: in vivo, Xanthium strumarium
Outline: as §1

velvetleaf = experiment: Test B pre/postemergence velvetleaf; type: in vivo, Abutilon theophrasti
Outline: as §1

rape = experiment: Test B pre/postemergence rape; type: in vivo, Brassica napus
Outline: as §1

wild oat = experiment: Test B pre/postemergence wild oat; type: in vivo, Avena fatua
Outline: as §1

pigweed = experiment: Test B pre/postemergence pigweed; type: in vivo, Amaranthus retroflexus
Outline: as §1

wheat = experiment: Test B pre/postemergence wheat; type: in vivo, Triticum aestivum
Outline: as §1

corn = experiment: Test B pre/postemergence corn; type: in vivo, Zea mays
Outline: as §1

purple nutsedge = experiment: Test B pre/postemergence purple nutsedge; type: in vivo, Cyperus rotundus
Outline: as §1

giant foxtail = experiment: Test B pre/postemergence giant foxtail; type: in vivo, Setaria faberii
Outline: as §1

bedstraw = experiment: Test B pre/postemergence bedstraw; type: in vivo, Galium aparine
Outline: as §1

crabgrass = experiment: Test B pre/postemergence crabgrass; type: in vivo, Digitaria sanguinalis
Outline: as §1

soybean = experiment: Test B pre/postemergence soybean; type: in vivo, Glycine max
Outline: as §1

morningglory = experiment: Test B pre/postemergence morningglory; type: in vivo, Ipomoea hederacea
Outline: as §1

blackgrass = experiment: Test B pre/postemergence blackgrass; type: in vivo, Alopecurus myosuroides
Outline: as §1

surinam grass = experiment: Test B pre/postemergence surinam grass; type: in vivo, Brachiaria decumbens; conditions: Postemergence
Outline: as §1

[1] = Postemergence, Rate 500 g/ha, scale 0 (no effect) to 10 (complete control)
[2] = Rate 125 g/ha, Preemergence, scale 0 to 10 (0 no effect, 10 complete control)
[3] = Rate 250 g/ha, Postemergence, scale 0 to 10, 0 is no effect, 10 is complete control
[4] = Rate 500 g/ha, Preemergence, scale 0 to 10 (0 no effect, 10 complete control)
[5] = Rate 1000 g/ha, Preemergence, scale 0 to 10 (0 no effect, 10 complete control)
[6] = Postemergence, Rate 125 g/ha, scale of 0 to 10 where 0 is no effect and 10 is complete control
[7] = Postemergence, Rate 1000 g/ha, scale 0 to 10 (0 no effect, 10 complete control)
[8] = Preemergence, Rate 250 g/ha, scale 0 (no effect) to 10 (complete control)

COP(=O)(CCn1c(=O)on(C(=O)N(c2ccc(F)cc2F)C(C)C)c1=O)OC [Compound 777]
Sugarbeets plant response rating (sugar beet; [1]): 5
Sugarbeets plant response rating (sugar beet; [2]): 0
Sugarbeets plant response rating (sugar beet; [3]): 3
Sugarbeets plant response rating (sugar beet; [4]): 3
Plant response rating, Sugarbeets (sugar beet; [5]): 3
Cocklebur plant response rating (cocklebur; [6]): 0
Cocklebur plant response rating (cocklebur; [1]): 0
Cocklebur plant response rating (cocklebur; [7]): 0
Cocklebur plant response rating (cocklebur; [8]): 0
Cocklebur plant response rating (cocklebur; [2]): 0
Cocklebur plant response rating (cocklebur; [3]): 0
Cocklebur plant response rating (cocklebur; [4]): 0
Velvetleaf plant response rating (velvetleaf; [1]): 5
Velvetleaf plant response rating (velvetleaf; [2]): 0
Velvetleaf plant response rating (velvetleaf; [3]): 3
Velvetleaf plant response rating (velvetleaf; [4]): 0
Plant response rating, Velvetleaf (velvetleaf; [5]): 3
Rape plant response rating (rape; [6]): 0
Rape plant response rating (rape; [1]): 0
Rape plant response rating (rape; [7]): 0
Rape plant response rating (rape; [2]): 0
Rape plant response rating (rape; [3]): 0
Rape plant response rating (rape; [4]): 2
Plant response rating, Rape (rape; [5]): 7
Wild oats plant response rating (wild oat; [1]): 3
Wild oats plant response rating (wild oat; [2]): 3
Wild oats plant response rating (wild oat; [3]): 2
Wild oats plant response rating (wild oat; [4]): 9
Plant response rating, Wild oats (wild oat; [5]): 9
Redroot pigweed plant response rating (pigweed; [6]): 2
Redroot pigweed plant response rating (pigweed; [1]): 4
Redroot pigweed plant response rating (pigweed; [7]): 8
Redroot pigweed plant response rating (pigweed; [2]): 2
Redroot pigweed plant response rating (pigweed; [3]): 4
Redroot pigweed plant response rating (pigweed; [4]): 2
Plant response rating, Redroot pigweed (pigweed; [5]): 9
Wheat plant response rating (wheat; [1]): 3
Wheat plant response rating (wheat; [2]): 0
Wheat plant response rating (wheat; [3]): 2
Wheat plant response rating (wheat; [4]): 9
Plant response rating, Wheat (wheat; [5]): 9
Corn plant response rating (corn; [6]): 0
Corn plant response rating (corn; [1]): 0
Corn plant response rating (corn; [7]): 0
Corn plant response rating (corn; [8]): 0
Corn plant response rating (corn; [2]): 0
Corn plant response rating (corn; [3]): 0
Corn plant response rating (corn; [4]): 0
Plant response rating, Corn (corn; [5]): 0
Nutsedge plant response rating (purple nutsedge; [1]): 3
Nutsedge plant response rating (purple nutsedge; [7]): 3
Nutsedge plant response rating (purple nutsedge; [2]): 0
Nutsedge plant response rating (purple nutsedge; [3]): 0
Plant response rating, Nutsedge (purple nutsedge; [5]): 1
Giant foxtail plant response rating (giant foxtail; [6]): 8
Giant foxtail plant response rating (giant foxtail; [1]): 9
Giant foxtail plant response rating (giant foxtail; [7]): 9
Giant foxtail plant response rating (giant foxtail; [8]): 10
Giant foxtail plant response rating (giant foxtail; [2]): 10
Giant foxtail plant response rating (giant foxtail; [3]): 8
Giant foxtail plant response rating (giant foxtail; [4]): 10
Plant response rating, Giant foxtail (giant foxtail; [5]): 10
Bedstraw plant response rating (bedstraw; [6]): 0
Bedstraw plant response rating (bedstraw; [1]): 3
Bedstraw plant response rating (bedstraw; [7]): 6
Bedstraw plant response rating (bedstraw; [2]): 0
Bedstraw plant response rating (bedstraw; [3]): 2
Bedstraw plant response rating (bedstraw; [4]): 0
Plant response rating, Bedstraw (bedstraw; [5]): 3
Crabgrass plant response rating (crabgrass; [6]): 4
Crabgrass plant response rating (crabgrass; [1]): 9
Crabgrass plant response rating (crabgrass; [8]): 10
Crabgrass plant response rating (crabgrass; [2]): 10
Crabgrass plant response rating (crabgrass; [3]): 7
Crabgrass plant response rating (crabgrass; [4]): 10
Plant response rating, Crabgrass (crabgrass; [5]): 10
Soybean plant response rating (soybean; [1]): 6
Soybean plant response rating (soybean; [2]): 0
Soybean plant response rating (soybean; [3]): 3
Soybean plant response rating (soybean; [4]): 0
Plant response rating, Soybean (soybean; [5]): 0
Morningglory plant response rating (morningglory; [6]): 8
Morningglory plant response rating (morningglory; [1]): 8
Morningglory plant response rating (morningglory; [7]): 8
Morningglory plant response rating (morningglory; [2]): 1
Morningglory plant response rating (morningglory; [3]): 8
Morningglory plant response rating (morningglory; [4]): 5
Plant response rating, Morningglory (morningglory; [5]): 7
Blackgrass plant response rating (blackgrass; [6]): 0
Blackgrass plant response rating (blackgrass; [1]): 4
Blackgrass plant response rating (blackgrass; [7]): 4
Blackgrass plant response rating (blackgrass; [8]): 10
Blackgrass plant response rating (blackgrass; [2]): 2
Blackgrass plant response rating (blackgrass; [3]): 2
Blackgrass plant response rating (blackgrass; [4]): 10
Plant response rating, Blackgrass (blackgrass; [5]): 10
B. signalgrass plant response rating (surinam grass; Rate 125 g/ha, scale of 0 to 10 where 0 is no effect and 10 is complete control): 2
B. signalgrass plant response rating (surinam grass; Rate 1000 g/ha, scale 0 to 10 (0 no effect, 10 complete control)): 8
B. signalgrass plant response rating (surinam grass; Rate 250 g/ha, scale 0 to 10, 0 is no effect, 10 is complete control): 2
B. signalgrass plant response rating (surinam grass; Rate 500 g/ha, scale 0 to 10, 0 is no effect, 10 is complete control): 3
